≈ marks a conversion by molar mass, not a printed value.
Legend:
[1] = tested on: Staphylococcus aureus; assay: Antibacterial activity against methicillin-resistant Staphylococcus aureus ATCC 33592 assessed as reduction in bacterial cell growth incubated for 18 hrs by microplate reader assay; format: functional
[2] = tested on: Staphylococcus aureus; assay: Antibacterial activity against methicillin-susceptible Staphylococcus aureus […] assessed as reduction in bacterial cell growth incubated for 18 hrs by microplate reader assay; format: functional
[3] = tested on: Enterococcus faecium; assay: Antimicrobial activity against Vancomycin-resistant Enterococcus faecium ATCC 700221 assessed as growth inhibition after 14 to 16 hrs by CLSI based broth dilution method; format: functional; settings: time 14-16 hrs
[4] = tested on: Enterococcus; assay: Antibacterial activity against vancomycin-resistant Enterococci assessed as reduction in bacterial cell growth incubated for 24 hrs by CLSI-microbroth dilution method; format: functional
[5] = tested on: Moraxella catarrhalis; assay: Antibacterial activity against Moraxella catarrhalis ATCC 8176 assessed as inhibition in bacterial growth measured after 24 hrs by broth microdilution method; format: functional
[6] = tested on: Moraxella catarrhalis; assay: Antibacterial activity against Moraxella catarrhalis assessed as inhibition of bacterial growth measured after 24 hrs by broth microdilution method; format: functional
[7] = tested on: Escherichia coli; assay: Antibacterial activity against Escherichia coli assessed as inhibition of bacterial cell growth measured after 24 hrs by broth microdilution method; format: functional
[8] = tested on: Haemophilus influenzae; assay: Antibacterial activity against Haemophilus influenzae assessed as reduction in bacterial cell growth measured after 24 hrs by broth microdilution method; format: functional
[9] = tested on: Streptococcus pneumoniae; assay: Antibacterial activity against Streptococcus pneumoniae assessed as reduction in bacterial cell growth measured after 24 hrs by broth microdilution method; format: functional
[10] = tested on: Staphylococcus aureus; assay: Antibacterial activity against methicillin-susceptible Staphylococcus aureus infected in Swiss albino mouse assessed as reduction in bacterial growth by measuring effective dose administered orally 2 to 4 times a day for 2 consecutive days; format: functional; settings: route po
[11] = tested on: Enterococcus faecalis; assay: Antibacterial activity against vancomycin-resistant Enterococcus faecalis […] infected in Swiss albino mouse assessed as reduction in bacterial growth by measuring effective dose administered orally 2 to 4 times a day for 2 consecutive days; format: functional; settings: route po
[12] = tested on: Staphylococcus aureus; assay: Antibacterial activity against Staphylococcus aureus ATCC 25923 assessed as reduction in microbial growth incubated for 24 hrs by micro-plate reader assay; format: functional
[13] = tested on: Staphylococcus aureus; assay: Antibacterial activity against Staphylococcus aureus HG001 assessed as reduction in bacterial cell growth incubated for 18 hrs by two-fold serial dilution method; format: functional
[14] = tested on: Pseudomonas aeruginosa; assay: Antibacterial activity against Pseudomonas aeruginosa PAO1 assessed as bacterial growth inhibition incubated for 18 hrs by two-fold serial dilution method; format: functional
[15] = tested on: Mycobacterium tuberculosis; assay: Antimycobacterial activity against Mycobacterium tuberculosis H37Rv assessed as reduction in bacterial cell growth incubated for 6 days by Alamar blue staining based assay; format: functional; settings: 144 h, time 6 day
[16] = tested on: Escherichia coli; assay: Antibacterial activity against Escherichia coli Delta tolC mutant assessed as bacterial growth inhibition incubated for 24 hrs by broth microdilution method; format: functional
[17] = tested on: Staphylococcus aureus; assay: Antibacterial activity against Staphylococcus aureus ATCC 25923 assessed as reduction in bacterial growth incubated for 18 to 24 hrs by microbroth dilution method; format: functional; settings: time 18-24 hrs
[18] = tested on: Enterococcus faecium; assay: Antibacterial activity against Enterococcus faecium ATCC 19434 assessed as reduction in microbial growth after 24 hrs by two-fold serial dilution method; format: functional
[19] = tested on: Streptococcus pneumoniae; assay: Antibacterial activity against Streptococcus pneumoniae assessed as reduction in bacterial cell growth inhibition by broth microdilution method; format: functional
[20] = molecular target: T1, Amine oxidase [flavin-containing] B (Homo sapiens, UniProt P27338); assay: Inhibition of MAO-B (unknown origin)
T1 sequence (P27338 whole entry): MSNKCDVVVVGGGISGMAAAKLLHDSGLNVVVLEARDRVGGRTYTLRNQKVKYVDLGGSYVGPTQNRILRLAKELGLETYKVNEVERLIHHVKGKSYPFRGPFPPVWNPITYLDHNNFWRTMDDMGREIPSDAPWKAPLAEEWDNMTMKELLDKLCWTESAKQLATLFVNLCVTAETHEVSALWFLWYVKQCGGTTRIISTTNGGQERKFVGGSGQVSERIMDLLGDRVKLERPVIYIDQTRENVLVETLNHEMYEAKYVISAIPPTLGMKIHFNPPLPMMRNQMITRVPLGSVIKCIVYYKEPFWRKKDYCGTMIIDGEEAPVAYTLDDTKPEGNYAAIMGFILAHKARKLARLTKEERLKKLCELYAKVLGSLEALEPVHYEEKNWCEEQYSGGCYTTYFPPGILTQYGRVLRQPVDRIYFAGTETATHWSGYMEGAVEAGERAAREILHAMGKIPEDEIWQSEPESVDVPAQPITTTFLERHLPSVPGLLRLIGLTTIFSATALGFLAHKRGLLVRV

[21] = tested on: Staphylococcus aureus; assay: Antimicrobial activity against methicillin-resistant Staphylococcus aureus assessed as microbial growth inhibition; format: functional
[22] = tested on: Staphylococcus aureus; assay: Antibacterial activity against methicillin-susceptible Staphylococcus aureus assessed as reduction in bacterial cell growth; format: functional
[23] = tested on: Enterococcus faecium; assay: Antimicrobial activity against Vancomycin-resistant Enterococcus faecium ATCC 51559 assessed as growth inhibition after 14 to 16 hrs by CLSI based broth dilution method; format: functional; settings: time 14-16 hrs
[24] = tested on: Staphylococcus aureus; assay: Antibacterial activity against methicillin-resistant Staphylococcus aureus […] assessed as inhibition of bacterial growth incubated for 24 hrs by microplate reader assay; format: functional
[25] = tested on: Enterococcus faecalis; assay: Antibacterial activity against vancomycin-resistant Enterococcus faecalis ATCC 51299 assessed as reduction in bacterial cell growth incubated for 24 hrs by broth microdilution method; format: functional
[26] = tested on: Enterococcus faecium; assay: Antibacterial activity against vancomycin-resistant Enterococcus faecium infected in mouse assessed as reduction in bacterial growth by measuring effective dose administered orally; format: functional; settings: route po
[27] = tested on: Staphylococcus aureus; assay: Antibacterial activity against methicillin-resistant Staphylococcus aureus infected in mouse assessed as reduction in bacterial growth by measuring effective dose administered orally; format: functional; settings: route po
[28] = tested on: Staphylococcus aureus; assay: Antibacterial activity against methicillin-susceptible Staphylococcus aureus infected in mouse assessed as reduction in bacterial growth by measuring effective dose administered orally; format: functional; settings: route po
[29] = Oral bioavailability in rat at 2 mg/kg; format: ADME, organism-based; settings: in vivo
[30] = Plasma protein binding in rat plasma at 10 mg/kg by LC-MS/MS analysis; format: ADME, organism-based; settings: read-out: PPB (converted)

SMILES: O=C1O[C@@H](Cn2ccnn2)CN1c1ccc(N2CCOCC2)c(F)c1
- MIC [1]: 0.5 µg/mL (≈ 1.44 µM)
- MIC [2]: 0.5 µg/mL (≈ 1.44 µM)
- MIC [3]: 0.5 µg/mL (≈ 1.44 µM)

SMILES: O=C(NCC(=O)N1CCN(c2ccc(N3C[C@H](Cn4ccnn4)OC3=O)cc2F)CC1)c1ccc([N+](=O)[O-])o1
- MIC [4]: 0.06 µg/mL (≈ 0.111 µM)
- MIC [5]: 0.25 µg/mL (≈ 0.461 µM)
- MIC [6]: 0.06 µg/mL (≈ 0.111 µM)
- MIC [7]: 0.06 µg/mL (≈ 0.111 µM)
- MIC [8]: 0.06 µg/mL (≈ 0.111 µM)
- MIC [9]: 0.06 µg/mL (≈ 0.111 µM)

SMILES: CC(=O)NC[C@H]1CN(c2ccc(-c3cnc(-n4cncn4)nc3)c(F)c2)C(=O)O1
- ED50 [10]: 4.2 mg/kg
- ED50 [11]: 8.6 mg/kg
- MIC [12]: 0.125 µg/mL

SMILES: CC(=O)NC[C@H]1CN(c2ccc(N3CCN(C(=O)OCn4cc(CNC(=O)C(CNC(=O)C(CNC(=O)CNC(=O)c5cccc(O)c5O)NC(=O)c5cccc(O)c5O)NC(=O)c5cccc(O)c5O)nn4)CC3)c(F)c2)C(=O)O1 (stereo partly drawn)
- MIC [13]: 16 µM (≈ 18 µg/mL)
- MIC [14]: > 64 µM

SMILES: CC(=O)NC[C@H]1CN(c2ccc(N3CCN(C(=O)CN(CCCNC(=O)c4cccc(O)c4O)C(=O)c4cccc(O)c4O)CC3)c(F)c2)C(=O)O1
- MIC [13]: 64 µM (≈ 46.3 µg/mL)
- MIC [14]: > 64 µM

SMILES: CC(=O)NC[C@H]1CN(c2ccc(-c3ccc(CO[C@@H]4COc5nc([N+](=O)[O-])cn5C4)nc3)c(F)c2)C(=O)O1
- MIC [15]: 0.15 µg/mL (≈ 0.285 µM)

SMILES: CC(=O)NC[C@H]1CN(c2ccc(N3CCN(C(=O)COCCOCCn4cc(CNC(=O)C(CCCCNC(=O)c5cccc(O)c5O)NC(=O)c5cccc(O)c5O)nn4)CC3)c(F)c2)C(=O)O1 (stereo partly drawn)
- MIC [13]: 64 µM (≈ 61.6 µg/mL)
- MIC [14]: > 64 µM

SMILES: CSCC[C@H](NC(=O)[C@H](Cc1ccc(O)cc1)NC(=O)[C@H](CCCCN)NC(=O)[C@@H]1CCCN1C(=O)[C@H](CO)NC(=O)[C@H](Cc1c[nH]c2ccccc12)NCC(=O)N(CCCCNC(=O)c1cccc(O)c1O)C(=O)c1cccc(O)c1O)C(=O)NCC(=O)N1CCN(c2ccc(N3C[C@H](CNC(C)=O)OC3=O)cc2F)CC1
- MIC [16]: 1 µM (≈ 1.59 µg/mL)

SMILES: CC(=O)NC[C@H]1CN(c2ccc(N3CCN(C(=O)COCCOCCn4cc(CNC(=O)C(CNC(=O)C(CNC(=O)CNC(=O)c5cccc(O)c5O)NC(=O)c5cccc(O)c5O)NC(=O)c5cccc(O)c5O)nn4)CC3)c(F)c2)C(=O)O1 (stereo partly drawn)
- MIC [13]: 64 µM (≈ 76.8 µg/mL)
- MIC [14]: > 64 µM

SMILES: CC(=O)NC[C@H]1CN(c2ccc(N3CCN(C(=O)OCn4cc(CNC(=O)C(CCCCNC(=O)c5cccc(O)c5O)NC(=O)c5cccc(O)c5O)nn4)CC3)c(F)c2)C(=O)O1 (stereo partly drawn)
- MIC [13]: 64 µM (≈ 57 µg/mL)
- MIC [14]: > 64 µM

SMILES: O=C1C=CN(c2c(F)cc(N3C[C@H](CNc4ccon4)OC3=O)c(F)c2F)CC1 [CONTEZOLID]
- MIC [17]: 0.06 µg/mL (≈ 0.147 µM)
- MIC [18]: 0.06 µg/mL
- MIC [19]: 0.06 µg/mL (≈ 0.147 µM)
- IC50 [20]: 30.1 µM

SMILES: CC(=O)NC[C@H]1CN(c2ccc(N3CCN(C(=O)CO)CC3)c(F)c2)C(=O)O1 [EPEREZOLID]
- MIC [21]: 1 µg/mL (≈ 2.54 µM)
- MIC [22]: 1 µg/mL (≈ 2.54 µM)
- MIC [23]: 1 µg/mL (≈ 2.54 µM)

SMILES: CC(=O)NC[C@H]1CN(c2ccc(N3CCN(Cc4ccc([N+](=O)[O-])o4)CC3)c(F)c2)C(=O)O1 [RANBEZOLID]
- MIC [24]: 0.125 µg/mL (≈ 0.271 µM)
- MIC [25]: 0.125 µg/mL (≈ 0.271 µM)

SMILES: Cn1nnc(-c2ccc(-c3ccc(N4C[C@H](CO)OC4=O)cc3F)cn2)n1 [TEDIZOLID]
- ED50 [26]: 8.8 mg/kg
- ED50 [27]: 8.8 mg/kg
- ED50 [28]: 8.8 mg/kg
- bioavailability [29]: 91%
- fraction unbound [30]: 0.3
